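Step 1: Grow cells in 96-well plates. Step 2: Expose to compound for 48 hours at 5 concentrations. Step 3: Interpolate endpoints linearly; if unreached, use highest concentration. Abbreviation: GI50, concentration required for 50% inhibition of growth. At the TGI there is no net growth.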
Key:
Experiment in all cases: NCI anticancer screen, dose series, 48 h; in the data active means GI50 below about 0.43 µM; inactive means the rest
LOX IMVI melanoma = tested on: LOX IMVI melanoma
COLO 205 colon = tested on: COLO 205 colon
HS 578T breast = tested on: HS 578T breast
HT29 colon = tested on: HT29 colon
ACHN renal = tested on: ACHN renal
NCI-H226 lung = tested on: NCI-H226 lung
SF-295 CNS = tested on: SF-295 CNS
A498 renal = tested on: A498 renal
TK-10 renal = tested on: TK-10 renal
KM12 colon = tested on: KM12 colon
SK-MEL-5 melanoma = tested on: SK-MEL-5 melanoma
786-0 renal = tested on: 786-0 renal
NCI/ADR-RES ovarian = tested on: NCI/ADR-RES ovarian
MDA-MB-231 breast = tested on: MDA-MB-231 breast
M14 melanoma = tested on: M14 melanoma
IGROV1 ovarian = tested on: IGROV1 ovarian
A549 NSCLC = tested on: A549 NSCLC
HCT-15 colon = tested on: HCT-15 colon
NCI-H23 lung = tested on: NCI-H23 lung
MOLT-4 leukemia = tested on: MOLT-4 leukemia
SF-268 CNS = tested on: SF-268 CNS
HOP-62 NSCLC = tested on: HOP-62 NSCLC
OVCAR-8 ovarian = tested on: OVCAR-8 ovarian
BT-549 breast = tested on: BT-549 breast
OVCAR-3 ovarian = tested on: OVCAR-3 ovarian
SNB-19 CNS = tested on: SNB-19 CNS
NCI-H460 lung = tested on: NCI-H460 lung
MALME-3M melanoma = tested on: MALME-3M melanoma
T-47D breast = tested on: T-47D breast
SF-539 CNS = tested on: SF-539 CNS
MCF7 breast = tested on: MCF7 breast
CAKI-1 renal = tested on: CAKI-1 renal
CCRF-CEM leukemia = tested on: CCRF-CEM leukemia
EKVX NSCLC = tested on: EKVX NSCLC
NCI-H522 lung = tested on: NCI-H522 lung
PC-3 prostate = tested on: PC-3 prostate
HCT-116 colon = tested on: HCT-116 colon
RXF 393 renal = tested on: RXF 393 renal
SK-MEL-2 melanoma = tested on: SK-MEL-2 melanoma
DU-145 prostate = tested on: DU-145 prostate
UACC-257 melanoma = tested on: UACC-257 melanoma
SR leukemia = tested on: SR leukemia
SK-MEL-28 melanoma = tested on: SK-MEL-28 melanoma
OVCAR-4 ovarian = tested on: OVCAR-4 ovarian
RPMI-8226 leukemia = tested on: RPMI-8226 leukemia
K-562 leukemia = tested on: K-562 leukemia
SN12C renal = tested on: SN12C renal
UACC-62 melanoma = tested on: UACC-62 melanoma
SNB-75 CNS = tested on: SNB-75 CNS
OVCAR-5 ovarian = tested on: OVCAR-5 ovarian
HOP-92 NSCLC = tested on: HOP-92 NSCLC
MDA-MB-435 = tested on: MDA-MB-435
SW-620 colon = tested on: SW-620 colon
UO-31 renal = tested on: UO-31 renal
SK-OV-3 ovarian = tested on: SK-OV-3 ovarian
HL-60(TB) leukemia = tested on: HL-60(TB) leukemia
HCC-2998 colon = tested on: HCC-2998 colon
U251 CNS = tested on: U251 CNS

Oc1ccc(OCCOc2ccc(O)cc2)cc1
28.2 µM: TGI (SF-539 CNS)
23.5 µM: TGI (M14 melanoma)
55.9 µM: TGI (NCI-H522 lung)
> 100 µM: TGI (LOX IMVI melanoma) | TGI (HS 578T breast) | TGI (HT29 colon) | TGI (ACHN renal) | TGI (NCI-H226 lung) | TGI (A498 renal) | TGI (TK-10 renal) | TGI (KM12 colon) | TGI (786-0 renal) | TGI (NCI/ADR-RES ovarian) | TGI (MDA-MB-231 breast) | TGI (IGROV1 ovarian) | TGI (A549 NSCLC) | TGI (HCT-15 colon) | TGI (NCI-H23 lung) | TGI (MOLT-4 leukemia) | TGI (SF-268 CNS) | TGI (HOP-62 NSCLC) | TGI (OVCAR-8 ovarian) | TGI (BT-549 breast) | TGI (OVCAR-3 ovarian) | TGI (SNB-19 CNS) | TGI (NCI-H460 lung) | TGI (MALME-3M melanoma) | TGI (T-47D breast) | TGI (MCF7 breast) | TGI (CCRF-CEM leukemia) | TGI (EKVX NSCLC) | TGI (PC-3 prostate) | TGI (HCT-116 colon) | TGI (RXF 393 renal) | TGI (DU-145 prostate) | TGI (UACC-257 melanoma) | TGI (SR leukemia) | TGI (SK-MEL-28 melanoma) | TGI (OVCAR-4 ovarian) | TGI (RPMI-8226 leukemia) | TGI (K-562 leukemia) | TGI (SN12C renal) | TGI (SNB-75 CNS) | TGI (OVCAR-5 ovarian) | TGI (HOP-92 NSCLC) | TGI (MDA-MB-435) | TGI (SW-620 colon) | TGI (SK-OV-3 ovarian) | TGI (HL-60(TB) leukemia) | TGI (U251 CNS)
60.6 µM: TGI (COLO 205 colon)
4.36 µM: TGI (SK-MEL-5 melanoma)
16.6 µM: TGI (SF-295 CNS)
13.8 µM: TGI (UACC-62 melanoma)
95.9 µM: TGI (HCC-2998 colon)
8.83 µM: TGI (UO-31 renal)
inactive: GI50 (LOX IMVI melanoma) 1.24 µM | GI50 (COLO 205 colon) 21.3 µM | GI50 (HS 578T breast) > 100 µM | GI50 (HT29 colon) 12.7 µM | GI50 (ACHN renal) 0.964 µM | GI50 (NCI-H226 lung) 4.98 µM | GI50 (SF-295 CNS) 2.36 µM | GI50 (A498 renal) 3.17 µM | GI50 (TK-10 renal) 6.65 µM | GI50 (KM12 colon) 2.26 µM | GI50 (SK-MEL-5 melanoma) 1.5 µM | GI50 (786-0 renal) 3.26 µM | GI50 (NCI/ADR-RES ovarian) 3.41 µM | GI50 (M14 melanoma) 3.03 µM | GI50 (IGROV1 ovarian) 5.94 µM | GI50 (A549 NSCLC) 3.5 µM | GI50 (HCT-15 colon) 8.55 µM | GI50 (NCI-H23 lung) 4.5 µM | GI50 (MOLT-4 leukemia) 8.82 µM | GI50 (SF-268 CNS) 3.94 µM | GI50 (HOP-62 NSCLC) 8.97 µM | GI50 (OVCAR-8 ovarian) 3.37 µM | GI50 (BT-549 breast) 8.08 µM | GI50 (OVCAR-3 ovarian) 5.67 µM | GI50 (SNB-19 CNS) 27.8 µM | GI50 (NCI-H460 lung) 3.57 µM | GI50 (MALME-3M melanoma) 3.69 µM | GI50 (T-47D breast) 4.15 µM | GI50 (SF-539 CNS) 2.2 µM | GI50 (MCF7 breast) 4.77 µM | GI50 (CAKI-1 renal) 0.987 µM | GI50 (CCRF-CEM leukemia) 2.27 µM | GI50 (EKVX NSCLC) 11.2 µM | GI50 (NCI-H522 lung) 1.72 µM | GI50 (PC-3 prostate) 2.75 µM | GI50 (HCT-116 colon) 6.24 µM | GI50 (RXF 393 renal) 6.18 µM | GI50 (SK-MEL-2 melanoma) 8.26 µM | GI50 (DU-145 prostate) 2.8 µM | GI50 (UACC-257 melanoma) 6.08 µM | GI50 (SR leukemia) 7.41 µM | GI50 (SK-MEL-28 melanoma) 88.9 µM | GI50 (OVCAR-4 ovarian) > 100 µM | GI50 (RPMI-8226 leukemia) 9.24 µM | GI50 (K-562 leukemia) 3.08 µM | GI50 (SN12C renal) 5.72 µM | GI50 (UACC-62 melanoma) 2.45 µM | GI50 (SNB-75 CNS) > 100 µM | GI50 (OVCAR-5 ovarian) 10.4 µM | GI50 (HOP-92 NSCLC) 3.65 µM | GI50 (MDA-MB-435) 3.22 µM | GI50 (SW-620 colon) 3.68 µM | GI50 (UO-31 renal) 1.47 µM | GI50 (SK-OV-3 ovarian) 99.2 µM | GI50 (HL-60(TB) leukemia) 5.22 µM | GI50 (HCC-2998 colon) 3.36 µM | GI50 (U251 CNS) 4.41 µM
20.6 µM: TGI (CAKI-1 renal)
82.6 µM: TGI (SK-MEL-2 melanoma)
active: GI50 (MDA-MB-231 breast) 0.414 µM
